Test results reported in article PMC2871681 (Bioorganic & medicinal chemistry, 2010).
“Also recorded” adds a separate entry of the source. Where two headings read alike, the source gives them in different places.

Tests used:
mGluR5 [1] = target: T1, mGluR5 (Rattus norvegicus, UniProt P31424); test: mGluR5 functional assay, calcium fluorescence; type: cell-based
mGluR5 [2] = target: T1, mGluR5; test: mGluR5 radioligand displacement binding assay with [3H]MPEP; details: for decrease in binding affinity compared to the phenyl analogue: 17 v. 22, 18 v. 25
[3] = read-out: mGluR5 function (Ca+2 flux) IC50±SEM, inhibition of glutamate-induced calcium mobilization
[4] = read-out: mGluR5 binding affinity Ki±SEM, [3H]MPEP, rat brain membranes or HEK293-T cells transfected with cloned rat mGluR5

T1 sequence (P31424 21-1203): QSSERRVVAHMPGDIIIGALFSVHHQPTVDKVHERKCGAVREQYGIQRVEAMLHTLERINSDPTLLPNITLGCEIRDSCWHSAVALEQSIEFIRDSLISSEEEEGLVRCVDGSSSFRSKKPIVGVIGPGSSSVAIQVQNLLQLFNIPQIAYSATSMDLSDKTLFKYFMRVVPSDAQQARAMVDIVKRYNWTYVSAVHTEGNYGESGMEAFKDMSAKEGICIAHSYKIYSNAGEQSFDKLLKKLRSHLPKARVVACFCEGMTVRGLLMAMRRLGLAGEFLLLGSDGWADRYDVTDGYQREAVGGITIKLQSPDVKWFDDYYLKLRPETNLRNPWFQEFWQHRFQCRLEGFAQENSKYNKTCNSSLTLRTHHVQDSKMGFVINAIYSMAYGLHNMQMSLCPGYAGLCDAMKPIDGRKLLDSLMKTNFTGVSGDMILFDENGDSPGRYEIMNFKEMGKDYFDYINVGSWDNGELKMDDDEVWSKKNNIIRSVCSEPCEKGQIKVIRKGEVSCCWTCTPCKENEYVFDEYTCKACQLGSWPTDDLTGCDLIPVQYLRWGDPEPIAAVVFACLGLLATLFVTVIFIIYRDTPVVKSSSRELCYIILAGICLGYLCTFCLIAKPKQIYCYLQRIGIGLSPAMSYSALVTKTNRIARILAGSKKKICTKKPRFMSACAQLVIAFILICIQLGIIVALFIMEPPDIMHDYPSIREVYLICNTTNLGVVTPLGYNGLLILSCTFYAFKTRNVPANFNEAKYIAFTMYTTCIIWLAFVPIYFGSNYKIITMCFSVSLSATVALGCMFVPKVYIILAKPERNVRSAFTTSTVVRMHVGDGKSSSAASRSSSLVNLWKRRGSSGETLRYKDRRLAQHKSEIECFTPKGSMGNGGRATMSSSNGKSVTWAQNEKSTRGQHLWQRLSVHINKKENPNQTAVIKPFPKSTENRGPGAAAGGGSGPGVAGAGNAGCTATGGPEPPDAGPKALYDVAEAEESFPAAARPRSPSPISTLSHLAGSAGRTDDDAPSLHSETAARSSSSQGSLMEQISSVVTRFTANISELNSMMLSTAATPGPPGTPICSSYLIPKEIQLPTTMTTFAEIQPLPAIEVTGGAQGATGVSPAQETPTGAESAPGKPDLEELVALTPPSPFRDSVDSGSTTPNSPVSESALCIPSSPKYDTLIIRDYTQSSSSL

| Compound | IC50 (mGluR5 [1]; [3]) [nM] | Ki (mGluR5 [2]; [4]) [nM] | decrease in binding affinity compared to the phenyl analogue (mGluR5 [2]) | further results |
| --- | --- | --- | --- | --- |
| 2-(Pyridin-3-yl)-4-(2-methylbenzo[d]thiazol-5-yl)benzonitrile [compound 26] | > 10000 | > 10000 | – | activity at mGluR5 in words (mGluR5 [2]): completely inactive |
| 2-Phenyl-4-(2-methylbenzo[d]thiazol-5-yl)benzonitrile [compound 25] | 6890 ± 1250 | 483 ± 98 | – | increase in binding affinity compared to parent structure 4 (mGluR5 [2]; 25 v. 4): ~ 4 fold |
| Cc1ccc2ccc(-c3ccc(OCc4ccccc4)c(C#N)c3)cc2n1 [compound 17, 2-Benzoxy-5-(2-methylquinolin-7-yl)benzonitrile] | – | – | ~ 10 fold | – |
| Cc1nc2cc(-c3ccc(OCc4ccccc4)c(C#N)c3)ccc2s1 [compound 18, 2-Benzoxy-5-(2-methylbenzo[d]thiazol-5-yl)benzonitrile] | – | – | 15 fold | – |
| Cc1ccc2ccc(-c3cncc(C#N)c3)cc2n1 [compound 30, 5-(2-Methylquinolin-7-yl)nicotinonitrile] | – | – | – | IC50 (mGluR5 [1]): 68 ± 5.3 nM; Ki (mGluR5 [2]): 100 ± 21 nM |
| Cc1ccc2ccc(-c3cnc(Cl)c(C#N)c3)cc2n1 [compound 31, 2-Chloro-5-(2-methylquinolin-7-yl)nicotinonitrile] | – | – | – | mode of mGluR5 antagonism (full or partial) (mGluR5 [1]; glutamate-induced mGluR5 activity): partial antagonist activity; also recorded: weak partial antagonist |
